Earlier results, collected in article PMC3010531 (Journal of the American Chemical Society, 2010).

Experiments:
[1] = target: mH2A1.1 (Homo sapiens, UniProt O75367); conditions: ref 13c
[2] = target: mH2A1.1 (G224E) (Homo sapiens, UniProt O75367, G224E); conditions: point-mutant; ref 13c
[3] = target: mH2A1.2 (Homo sapiens, UniProt O75367); conditions: splice-variant; ref 13c
mH2A1.2, sequence (O75367 162-372 isoform O75367-1): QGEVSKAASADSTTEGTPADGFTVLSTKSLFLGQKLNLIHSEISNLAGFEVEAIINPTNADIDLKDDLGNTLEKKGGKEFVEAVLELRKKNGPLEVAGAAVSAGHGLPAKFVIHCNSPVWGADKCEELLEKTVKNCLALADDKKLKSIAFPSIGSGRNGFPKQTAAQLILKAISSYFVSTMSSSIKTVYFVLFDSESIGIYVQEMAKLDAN

mH2A1.1, sequence (O75367 184-367 limits assumed, species assumed): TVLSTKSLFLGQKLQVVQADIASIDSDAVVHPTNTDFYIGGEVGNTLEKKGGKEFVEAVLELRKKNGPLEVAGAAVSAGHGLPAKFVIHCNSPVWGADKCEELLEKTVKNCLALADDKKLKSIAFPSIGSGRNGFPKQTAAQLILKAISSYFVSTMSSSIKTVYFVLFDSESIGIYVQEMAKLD
mH2A1.1 (G224E), sequence (O75367 whole entry G224E, species assumed, canonical isoform): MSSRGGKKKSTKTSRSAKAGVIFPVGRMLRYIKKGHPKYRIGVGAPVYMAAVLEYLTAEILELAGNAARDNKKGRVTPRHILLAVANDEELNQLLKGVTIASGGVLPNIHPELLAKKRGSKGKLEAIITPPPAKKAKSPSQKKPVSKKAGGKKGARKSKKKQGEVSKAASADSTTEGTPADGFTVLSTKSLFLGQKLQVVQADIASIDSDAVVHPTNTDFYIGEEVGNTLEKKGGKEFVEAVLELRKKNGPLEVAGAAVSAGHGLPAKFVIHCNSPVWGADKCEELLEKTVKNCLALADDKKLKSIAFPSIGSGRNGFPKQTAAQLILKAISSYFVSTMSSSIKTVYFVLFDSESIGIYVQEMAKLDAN

- affinity of free ADPR for mH2A1.1 [1]: modest, in the μM range
- binding of ADPR by mH2A1.1 (G224E) [2]: abolishes ADPR binding
- binding of ADPR by mH2A1.2 [3]: does not bind ADPR
Compound: Nc1ncnc2c1ncn2[C@@H]1O[C@H](COP(=O)(O)OP(=O)(O)OC[C@H]2OC(O)[C@H](O)[C@@H]2O)[C@@H](O)[C@H]1O (stereo partly drawn) [ADPR, ADP-ribose]
